# Measurements: patent US20260337212A1, “IP4-4,6 SUBSTITUTED DERIVATIVE COMPOUNDS FOR USE IN THE TREATMENT, INHIBITION OF PROGRESSION, AND PREVENTION OF ECTOPIC CALCIFICATION” (SANIFIT THERAPEUTICS, S.A., priority 2022, published 2026)
# Key:
# [1] = Rat vitamin D3 model: blood perfusion of posterior limbs by laser doppler perfusion imaging; type: in vivo, Sprague Dawley rat; conditions: FIG. 13
# Method: Statistical analysis: One-way ANOVA with Fisher's LSD test for post-hoc comparisons. The result of the ANOVA was p<0.0001. (#) indicates significant differences vs sham, (*) indicates significant differences vs vehicle, (§) indicates significant differences vs Compound 27 5 mg/kg (only applies to other Compound 27 doses), p<0.05. N=10-12 animals/group.
# The model evaluated the effects of Compound 27 on tissue calcification, blood perfusion, and walking ability in rats for a duration of 13 days. Tissue calcification was induced in groups 2-5 from D1 to D3. Animals induced with calcification were administered placebo or active agent formulations from D1 onwards to assess their effects in preventing calcification. The impact of treatment on tissue calcification, blood perfusion, and walking ability was evaluated. Observations were taken at several points during the treatment from D0 to D13. All animals were weighed every day before treatment. […]
# Blood perfusion (BP) was evaluated by laser doppler perfusion imaging applied to the posterior limbs of the animals using a PeriCam PSI Normal Resolution analyzer (Perimed A B, Järfälla, S E). […] The perfusion ratio (i.e., mean of the two legs) was calculated by comparing the baseline and either D4 or D13 readings for each group. In addition, the perfusion ratio was calculated by comparing group 1 and groups 2-5.
# [2] = Rat vitamin D3 model: walking ability, forced incremental treadmill test; type: in vivo, Sprague Dawley rat
# Method: FIG. 14 depicts the mean maximum walking distance (±SD) in Sham rats (no VitD3 treatment) and rats treated with vehicle, Compound 27 (5, 15, and 45 mg/kg). Statistical analysis: One-way ANOVA with Fisher's LSD test for post-hoc comparisons. The result of the ANOVA was p<0.0001. (#) indicates significant differences vs. sham, (*) indicates significant differences vs vehicle, (§) indicates significant differences vs Compound 27 5 mg/kg (only applies to other Compound 27 doses), (¥) indicates significant differences vs Compound 27 15 mg/kg (only applies to Compound 27 45 mg/kg), (‡) significant differences vs Compound 27 45 mg/kg, p<0.05.
# The model evaluated the effects of Compound 27 on tissue calcification, blood perfusion, and walking ability in rats for a duration of 13 days. Tissue calcification was induced in groups 2-5 from D1 to D3. […] The impact of treatment on tissue calcification, blood perfusion, and walking ability was evaluated. […]
# Maximal walking time (MWT) and maximal walking distance (MWD) were assessed by forced incremental treadmill running tests using a two-lane touch screen treadmill device for rats (Cat. No. LE8709TS, Panlab, Harvard Biosciences, Inc., Holliston, MA, US) with a 15% inclination. […]
# For group 2, the treadmill assessment started 15 min after dosing. […] MWD (in meters) and MWT (in minutes) were recorded for each animal.
# [3] = tested on: abcc6a−/− zebrafish larvae; test: abcc6a−/− zebrafish model of Pseudoxanthoma elasticum: spinal column hypermineralization (Alizarin Red); type: in vivo; conditions: 3 to 10 dpf
# Method: FIG. 16 depicts an analysis of hypermineralization using Alizarin Red staining in 10 dpf abcc6a^−/− zebrafish larvae. The larvae were kept in E3-medium (n=20) and E3-medium supplemented with Compound 27 1 mM (n=18) from 3 to 10 dpf.
# A stable CRISPR/Cas9 abcc6a^−/− zebrafish model characterized for spinal column hypermineralization was used for assaying the efficacy of Compound 27 in the treatment of Pseudoxanthoma elasticum (PXE; Van Gils M, et al., J Invest Dermatol […]; 138:2333-2342).
# Abcc6a^−/− larvae were treated with Compound 27 at different concentrations (i.e., 100 μM, 300 μM, and 1 mM) for 7 days, starting at 3 days post fertilization (dpf), with daily refreshment of the medium containing the solved compounds. On 10 dpf, the larvae were euthanized and stained with Alizarin Red to visualize the spinal column hypermineralization, using a Leica M165 FC microscope (Leica Microsystems GmbH, Wetzlar, DE). Semi-quantification of calcification was done through image processing with ImageJ […] (Rasband W, Research Services Branch, NIH, Bethesda, MD, US).
substance,measurement,setting,value
"4,6-O-bis(5-acetamidopentyl)-myo-inositol-1,2,3,5-tetrakis(phosphate) octasodium salt [Compound 27]",Effect on blood perfusion,"[1]; 5, 15, 45 mg/kg s.c. daily, D13",dose-response effect from 5 mg/kg
same,Recovery of posterior limb blood perfusion,[1]; 15 and 45 mg/kg s.c. daily,recovery of posterior limb blood perfusion at doses of 15 and 45 mg/kg
same,Effect on maximum walking distance,"[2]; 5, 15, 45 mg/kg s.c. daily, FIG. 14",dose-response effect from 5 mg/kg
same,Improvement of walking ability,"[2]; 15 and 45 mg/kg s.c. daily, as early as D5 after induction","improves the walking ability of rats administered with vitamin D as early as D5 after the induction of the PAD disease, in a dose-response manner"
same,Reduction of spinal hypermineralization (in words),"[3]; 1 mM in E3-medium, FIG. 16",Significant reduction of spinal hypermineralization
same,Average reduction of spinal column hypermineralization,[3]; 1 mM in medium,60%
same,Physiological calcification and bone formation,[3]; 1 mM in medium,conservation of the physiological calcification and bone formation
same,Significance (p) of reduced spinal hypermineralization vs untreated,[3]; 1 mM in medium,< 0.001
same,Relative calcified area,"[3]; 1 mM in medium, untreated 35.2",14.17
